From paper PMC4724238 (Biochemical and biophysical research communications, 2015)

Key:
Assay in all cases: reduction to DABS-Met, […] min
Format in all cases: biochemical
Details in all cases: no activator
hMsrA = target: T1, hMsrA (Homo sapiens, UniProt Q9UJ68)
T1 sequence (Q9UJ68 23-235): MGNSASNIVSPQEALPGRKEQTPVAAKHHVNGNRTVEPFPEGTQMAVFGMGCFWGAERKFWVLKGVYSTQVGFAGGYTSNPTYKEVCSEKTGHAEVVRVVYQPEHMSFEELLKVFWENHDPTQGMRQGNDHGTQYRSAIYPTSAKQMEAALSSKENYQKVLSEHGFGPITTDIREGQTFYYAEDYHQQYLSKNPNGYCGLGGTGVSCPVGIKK

eMsrA = target: T2, eMsrA (Escherichia coli, UniProt P0A744)
T2 sequence (P0A744 2-212): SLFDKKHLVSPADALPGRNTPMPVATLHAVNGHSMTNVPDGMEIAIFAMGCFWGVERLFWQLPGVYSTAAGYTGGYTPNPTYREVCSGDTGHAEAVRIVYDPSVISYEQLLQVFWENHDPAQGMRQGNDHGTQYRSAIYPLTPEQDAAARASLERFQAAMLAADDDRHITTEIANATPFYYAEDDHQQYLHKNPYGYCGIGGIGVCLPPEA

hMsrA (myristoylated) = target: T3, hMsrA (myristoylated) (Homo sapiens, UniProt Q9UJ68)
T3 sequence (Q9UJ68 23-235): T1 sequence (Q9UJ68 23-235)

bMsrA = target: T4, bMsrA (Bos taurus, UniProt P54149)
T4 sequence (P54149 1-233 limits assumed): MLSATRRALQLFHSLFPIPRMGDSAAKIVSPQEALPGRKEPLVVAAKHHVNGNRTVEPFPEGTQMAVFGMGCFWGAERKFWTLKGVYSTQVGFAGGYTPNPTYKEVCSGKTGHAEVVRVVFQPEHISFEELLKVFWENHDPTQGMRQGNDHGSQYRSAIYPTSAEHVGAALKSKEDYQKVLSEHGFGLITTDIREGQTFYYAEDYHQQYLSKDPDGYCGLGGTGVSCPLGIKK

eMsrB = target: T5, eMsrB (Escherichia coli, UniProt P0A746)
T5 sequence (P0A746 2-137): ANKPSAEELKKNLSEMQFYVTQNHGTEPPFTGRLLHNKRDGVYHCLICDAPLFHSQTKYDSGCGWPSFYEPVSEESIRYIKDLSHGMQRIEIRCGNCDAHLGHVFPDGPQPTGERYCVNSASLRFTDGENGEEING

hMsrB2 = hMsrB2 (Homo sapiens, UniProt Q9Y3D2)
Chain of hMsrB2 (Q9Y3D2 whole entry): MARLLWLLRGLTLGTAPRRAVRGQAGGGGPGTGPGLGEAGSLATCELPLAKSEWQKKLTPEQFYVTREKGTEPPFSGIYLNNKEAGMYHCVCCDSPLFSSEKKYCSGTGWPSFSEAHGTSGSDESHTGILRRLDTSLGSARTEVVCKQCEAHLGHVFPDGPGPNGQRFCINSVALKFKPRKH

hMsrB3 = target: T6, hMsrB3 (Homo sapiens, UniProt Q8IXL7)
T6 sequence (Q8IXL7 1-192 limits assumed): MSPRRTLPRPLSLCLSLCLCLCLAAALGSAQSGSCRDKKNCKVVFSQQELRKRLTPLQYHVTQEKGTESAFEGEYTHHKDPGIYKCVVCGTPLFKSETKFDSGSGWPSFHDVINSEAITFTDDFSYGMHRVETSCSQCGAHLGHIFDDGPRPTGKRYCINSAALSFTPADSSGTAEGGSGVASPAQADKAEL

CN(C)c1ccc(N=Nc2ccc(S(=O)(=O)N[C@@H](CC[S@+](C)[O-])C(=O)O)cc2)cc1 [DABS-Met-S-(o)]
reduction to DABS-Met, 30 min (hMsrA): uses a synthetic substrate, either DABS-Met-S-(o) or DABS-Met-R-(o), to measure the activity of MsrA | reduction to DABS-Met, 30 min (eMsrA): uses a synthetic substrate, either DABS-Met-S-(o) or DABS-Met-R-(o), to measure the activity of MsrA | reduction to DABS-Met, 30 min (hMsrA (myristoylated)): uses a synthetic substrate, either DABS-Met-S-(o) or DABS-Met-R-(o), to measure the activity of MsrA | reduction to DABS-Met, 30 min (bMsrA): uses a synthetic substrate, either DABS-Met-S-(o) or DABS-Met-R-(o), to measure the activity of MsrA

CN(C)c1ccc(N=Nc2ccc(S(=O)(=O)N[C@@H](CC[S@@+](C)[O-])C(=O)O)cc2)cc1 [DABS-Met-R-(o)]
reduction to DABS-Met, 30 min (eMsrB): either DABS-Met-S-(o) or DABS-Met-R-(o), to measure the activity of MsrA and MsrB, respectively | reduction to DABS-Met, 30 min (hMsrB2): either DABS-Met-S-(o) or DABS-Met-R-(o), to measure the activity of MsrA and MsrB, respectively | reduction to DABS-Met, 30 min (hMsrB3): either DABS-Met-S-(o) or DABS-Met-R-(o), to measure the activity of MsrA and MsrB, respectively
